Source: patent US11191757B2, “Combination of pimavanserin and cytochrome P450 modulators” (ACADIA Pharmaceuticals Inc., priority 2016, dated 2021)
“Also recorded” adds a separate entry of the source.

Experiments:
[1] = Safety and tolerability of single-dose pimavanserin alone and in the presence of ketoconazole in healthy subjects; type: in vivo, human; settings: for treatment-related TEAEs considered related to the substance, number (% of the 16 treatment-related TEAEs): 20 healthy subjects, pimavanserin tartrate 40 mg single doses, ketoconazole 400 mg daily for 14 days; for safety and tolerability: healthy adult subjects
Experimental: The subject who was discontinued was not replaced.
Safety data (including adverse events (AEs)), laboratory tests, vital sign measurements, electrocardiograms (ECGs), and physical examination (PE) were reviewed throughout the study for the purpose of safety monitoring. Clinical laboratory assessments were obtained on Day −1, Day 18, and the end of study visit. Vital signs were performed at each study visit, except on Day −1. A 12-lead ECG was performed on Day −1, Day 1, Day 19 and the end of study visit. Other safety measures included physical examination on Days −1, 3, 23, and the end of study visit and any other measures deemed necessary.
All available safety data from subjects receiving at least one dose of study medication were included in the safety analyses. The frequency of AEs was tabulated. Pre-treatment, within study, and end of study, and change from pre-treatment laboratory, vital signs, and ECG parameters were summarized. Shift tables were prepared for laboratory parameters.

[2] = target: cytochrome P450 (CYP) 3A4 (Homo sapiens, UniProt P08684); experiment: In vitro studies of the enzymes forming the primary metabolites of pimavanserin; type: in vitro ADME
Experimental: (§1) A major metabolite formed in vitro by human liver microsomes, M1 (N-desmethyl-pimavanserin), was identified as a significant circulating metabolite in humans in vivo.
An in vitro study was performed to analyze the role of a CYP3A4 inhibitor in pimavanserin metabolism.

CYP3A4 = target: T1, CYP3A4 (Homo sapiens, UniProt P08684); experiment: Effect of pimavanserin on the pharmacokinetics of midazolam, in vivo probe drug for CYP3A4; settings: 34 mg pimavanserin for up to 38 days, humans
T1 construct: from tissue; host or cells: human subjects in vivo (endogenous hepatic/intestinal enzyme)
Experimental: In this study, the pharmacokinetics of midazolam, a sensitive in vivo probe drug for CYP3A4 and an accepted probe drug for CYP3A4, were evaluated in the presence of pimavanserin in humans. […] No dose adjustment is therefore required for other CYP3A4 substrates when coadministered with pimavanserin.

CYP2J2 = target: T2, CYP2J2 (Homo sapiens, UniProt P51589); experiment: In vitro studies of the enzymes forming the primary metabolites of pimavanserin; type: in vitro ADME
T2 sequence (P51589 1-502): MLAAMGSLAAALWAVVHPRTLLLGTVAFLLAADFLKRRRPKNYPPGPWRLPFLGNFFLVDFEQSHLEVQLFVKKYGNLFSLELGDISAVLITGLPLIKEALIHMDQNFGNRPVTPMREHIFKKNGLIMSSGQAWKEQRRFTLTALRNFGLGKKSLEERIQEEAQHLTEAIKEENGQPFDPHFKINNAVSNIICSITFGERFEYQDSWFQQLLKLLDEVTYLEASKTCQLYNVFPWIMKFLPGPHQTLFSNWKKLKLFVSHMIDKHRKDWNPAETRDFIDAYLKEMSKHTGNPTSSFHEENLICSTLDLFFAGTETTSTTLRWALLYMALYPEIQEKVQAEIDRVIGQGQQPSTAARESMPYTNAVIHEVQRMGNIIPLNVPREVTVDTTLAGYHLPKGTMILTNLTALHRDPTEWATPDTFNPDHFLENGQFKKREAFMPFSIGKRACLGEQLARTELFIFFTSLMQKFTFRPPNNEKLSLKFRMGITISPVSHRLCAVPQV
Text: as §1

clinical = settings: both, human, in vivo, po, 40 mg
Experimental: (§2) 20 subjects (14 males and 6 females) were enrolled in this study. These subjects were healthy male or female subjects between the ages of 18 and 55 years, and with a body mass index (BMI) between 18 and 30 kg/m^2. Among the 20 subjects, 10 subjects (50%) were black, 9 subjects (45%) were white and 1 subject (5%) was American Indian/Alaska native.
(§3) On Day 1, subjects received a single oral dose of pimavanserin tartrate 40 mg (2×20 mg tablets) under fasting conditions. On Day 15, subjects began taking ketoconazole 400 mg (2×200 mg tablets) orally once daily for 14 days. A single oral dose of pimavanserin tartrate 40 mg was administered under fasting conditions 60 minutes after the fifth ketoconazole dose (on Day 19). Both single doses of pimavanserin tartrate were administered on an empty stomach, following an overnight fast of approximately 10 hours prior to dosing. Subjects continued to fast for 4 hours after administration of pimavanserin tartrate.
(§4) Samples for pimavanserin pharmacokinetic (PK) analysis were collected prior to each pimavanserin dose and at scheduled time points up to 14 days post-dose. More specifically, blood samples for the determination of plasma pimavanserin and four of its metabolites were collected at the following time points in relation to pimavanserin dosing on Day 1 and Day 19: pre-dose (within 30 minutes of dosing), 1, 2, 4, 6, 9, 12, 16, 24, 36, 48, 72, 96, 144, 192, 264, and 336 hours post-dose. The pharmacokinetics of pimavanserin and four metabolites, M1 (N-desmethyl-pimavanserin), M2 (O-desalkyl-pimavanserin), M3 ([ω-1]-hydroxy-pimavanserin), and M4 (ω-hydroxy-pimavanserin), by treatment consisting of pimavanserin alone and pimavanserin with ketoconazole, were assessed using noncompartmental analysis.
(§5) The following parameters were determined for pimavanserin, M1, M2 and M3 (the analytes for which there was a sufficient number of quantifiable post-dose concentrations): the area under the concentration-time curve from 0 to the time of the last measurable concentration (AUC0-t); the area from 0 to infinity (AUC0-inf); the percent of the extrapolated portion of the AUC0-inf (% AUCext); the maximum observed plasma concentration (Cmax); time of maximum plasma concentration (Tmax); apparent first-order terminal elimination rate constant (kel), and apparent first-order terminal elimination half-life (t1/2). Additional PK parameters computed for pimavanserin were oral clearance (CL/F), and apparent volume of distribution (Vz/F). Where feasible, as in the case of pimavanserin, M1, M2 and M3, parent ratios, which were computed as AUC(metabolite)/AUC(parent) ratios based on both AUC0-t and AUC0-inf were also determined.
(§6) A two-sided paired t-test was performed on the natural log-transformed pimavanserin AUC0-t, AUC0-inf, and Cmax at the alpha level of 0.05. The geometric ratio of treatment means (pimavanserin with ketoconazole/pimavanserin alone) and 90% geometric confidence intervals for the ratio of means were calculated for AUC0-t, AUC0-inf, and Cmax.

[3] = both, human, in vivo
Experimental: as §2, §3, §4, §5, §6

[4] = Pharmacokinetics of single-dose pimavanserin alone and in the presence of multiple-dose ketoconazole (strong CYP3A inhibitor) in healthy subjects; settings: for exposure to metabolite, mean AUC ratio AUC(metabolite)/AUC(parent): after a single dose of pimavanserin; for metabolite plasma concentrations with ketoconazole co-administration: metabolite in plasma after pimavanserin tartrate 40 mg with ketoconazole 400 mg daily; for metabolite plasma levels after pimavanserin: metabolite in plasma after single dose pimavanserin tartrate 40 mg, 19 subjects
Experimental: as §2, §3, §4, §5, §6

[5] = Elimination half-life of circulating metabolite M1 in humans in vivo; set-up: species or system human

Sequence of cytochrome P450 (CYP) 3A4 (P08684 whole entry): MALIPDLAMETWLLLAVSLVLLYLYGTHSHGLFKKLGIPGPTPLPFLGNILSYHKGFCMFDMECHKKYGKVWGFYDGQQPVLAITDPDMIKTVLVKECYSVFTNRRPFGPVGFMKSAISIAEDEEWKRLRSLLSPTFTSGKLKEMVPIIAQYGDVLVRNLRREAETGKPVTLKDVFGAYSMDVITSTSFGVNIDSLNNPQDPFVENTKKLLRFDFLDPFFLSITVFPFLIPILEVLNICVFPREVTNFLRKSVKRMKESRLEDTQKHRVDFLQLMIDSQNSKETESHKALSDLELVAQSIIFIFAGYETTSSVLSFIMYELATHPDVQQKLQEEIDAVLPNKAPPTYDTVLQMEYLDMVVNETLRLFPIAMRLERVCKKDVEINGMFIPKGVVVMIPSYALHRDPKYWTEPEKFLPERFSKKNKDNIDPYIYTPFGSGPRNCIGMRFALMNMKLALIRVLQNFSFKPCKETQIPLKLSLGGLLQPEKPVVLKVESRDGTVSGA
T1 sequence (P08684 whole entry): as above

CC(C)COc1ccc(CNC(=O)N(Cc2ccc(F)cc2)C2CCN(C)CC2)cc1 [Pimavanserin, N-(1-methylpiperidin-4-yl)-N-(4-fluorophenylmethyl)-N′-(4-(2-methylpropyloxy)phenylmethyl)carbamide]
treatment-related TEAEs considered related to the substance, number (% of the 16 treatment-related TEAEs) [1]: 8 (50%)
changes in mean clinical laboratory, vital signs, 12-lead ECG or physical examination findings ([1]; following pimavanserin alone or pimavanserin with ketoconazole): No trends or clinically relevant changes
safety and tolerability ([1]; pimavanserin administered alone): safe and generally well tolerated
safety and tolerability ([1]; pimavanserin administered with ketoconazole): safe and generally well tolerated
deaths or serious adverse events during the study ([1]; pimavanserin alone and with ketoconazole, 20 subjects): No deaths or serious adverse events
role of enzyme in formation of the primary metabolites [2]: formed predominantly by the cytochrome P450 (CYP) 3A4 enzymes
effect on midazolam exposure (induction or inhibition of CYP3A4) (CYP3A4): no immediate or delayed effect
role of enzyme in formation of the primary metabolites (CYP2J2): minor role
AUC(0-inf) (clinical): 1260 ± 464 ng·h/mL
AUC(0-t) (clinical): 1220 ± 433 ng·h/mL
Cmax (clinical): 17.1 ± 3.8 ng/mL
ratio of the geometric means, pimavanserin AUC0-inf [3]: approximately 3
ratio of the geometric means, pimavanserin AUC0-t [3]: approximately 3

CC(C)COc1ccc(CNC(=O)N(Cc2ccc(F)cc2)C2CCNCC2)cc1 [M1, N-desmethyl-pimavanserin]
exposure to metabolite, mean AUC ratio AUC(metabolite)/AUC(parent) [4]: 1.47
net increase in mean AUC0-t of metabolite with ketoconazole co-administration relative to pimavanserin alone ([4]; metabolite in plasma after pimavanserin tartrate 40 mg, ketoconazole 400 mg daily): 26%
elimination half-life [5]: about 65 hours

CN1CCC(N(Cc2ccc(F)cc2)C(=O)NCc2ccc(O)cc2)CC1 [M2, O-desalkyl-pimavanserin]
exposure to metabolite, mean AUC ratio AUC(metabolite)/AUC(parent) [4]: 0.0365
metabolite plasma concentrations with ketoconazole co-administration [4]: decreased plasma concentrations; also recorded: reduced

CN1CCC(N(Cc2ccc(F)cc2)C(=O)NCc2ccc(OCC(C)(C)O)cc2)CC1 [M3, [ω-1]-hydroxy-pimavanserin]
metabolite plasma concentrations with ketoconazole co-administration [4]: not detectable in any subjects; also recorded: reduced
metabolite plasma levels after pimavanserin [4]: Only 5 of the 19 subjects had a few measurable plasma levels; also recorded: Low levels

CC(CO)COc1ccc(CNC(=O)N(Cc2ccc(F)cc2)C2CCN(C)CC2)cc1 (stereo not shown) [M4, ω-hydroxy-pimavanserin]
metabolite plasma levels after pimavanserin [4]: undetectable; also recorded: no detectable concentrations

CC(=O)N1CCN(c2ccc(OCC3COC(Cn4ccnc4)(c4ccc(Cl)cc4Cl)O3)cc2)CC1 (stereo not shown) [ketoconazole, reference compound]
treatment-related TEAEs considered related to the substance, number (% of the 16 treatment-related TEAEs) [1]: 12 (75%)
